Reference: patent US20160145267A1, “HETEROARYL SUBSTITUTED PYRAZOLES” (BAYER PHARMA AKTIENGESELLSCHAFT, priority 2013, published 2016)
Like-named read-outs stand apart in the source and are kept apart here.

Key:
HeLa cell line = assay: Proliferation assay (HeLa cell line); assay type: cell-based; conditions: Homo sapiens, 96 h, read-out: Biological Assay 2: Proliferation assay (HeLa cell line) median IC50
Procedure: Cultivated tumor cells (cells were ordered from ATCC, except HeLa-MaTu and HeLa-MaTu-ADR, which were ordered from EPO-GmbH, Berlin) were plated at a density of 1000 to 5000 cells/well, depending on the growth rate of the respective cell line, in a 96-well multititer plate in 200 μL of their respective growth medium supplemented 10% fetal calf serum. After 24 hours, the cells of one plate (zero-point plate) were stained with crystal violet (see below), while the medium of the other plates was replaced by fresh culture medium (200 μL), to which the test substances were added in various concentrations (0 μM, as well as in the range of 0.001-10 μM; the final concentration of the solvent dimethyl sulfoxide was 0.5%). The cells were incubated for 4 days in the presence of test substances. Cell proliferation was determined by staining the cells with crystal violet: the cells were fixed by adding 20 μL/measuring point of an 11% glutaric aldehyde solution for 15 minutes at room temperature. After three washing cycles of the fixed cells with water, the plates were dried at room temperature. The cells were stained by adding 100 μL/measuring point of a 0.1% crystal violet solution (pH 3.0). After three washing cycles of the stained cells with water, the plates were dried at room temperature. The dye was dissolved by adding 100 μl/measuring point of a 10% acetic acid solution. Absorbtion was determined by photometry at a wavelength of 595 nm. The change of cell number, in percent, was calculated by normalization of the measured values to the absorbtion values of the zero-point plate (=0%) and the absorbtion of the untreated (0 μm) cells (=100%). The IC50 values were determined by means of a 4 parameter fit.

[1] = target: T1, catalytic domain of human Bub1 (amino acids 704-1085) (Homo sapiens, UniProt O43683); assay: Bub1 kinase assay (TR-FRET); assay type: biochemical
T1 construct: catalytic domain of human Bub1 (amino acids 704-1085); His6 (N); made in house; host or cells: Hi5 insect cells
T1 sequence (O43683 704-1085): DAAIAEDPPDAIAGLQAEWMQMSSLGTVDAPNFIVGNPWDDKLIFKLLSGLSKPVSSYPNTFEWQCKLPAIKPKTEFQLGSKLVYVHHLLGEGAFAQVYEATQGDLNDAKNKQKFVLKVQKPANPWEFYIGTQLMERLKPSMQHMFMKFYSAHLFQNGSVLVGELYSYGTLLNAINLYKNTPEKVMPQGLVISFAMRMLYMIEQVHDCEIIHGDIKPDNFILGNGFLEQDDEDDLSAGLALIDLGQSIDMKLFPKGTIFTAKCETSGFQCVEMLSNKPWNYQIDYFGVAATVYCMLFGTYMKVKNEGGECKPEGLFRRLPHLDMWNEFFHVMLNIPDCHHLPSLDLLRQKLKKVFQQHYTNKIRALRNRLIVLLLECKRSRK
Procedure: To this end, 100-fold concentrated compound solutions (in DMSO) were previously prepared by serial dilution (1:3.4) of 2 mM stocks in a clear low volume 384-well source microtiter plate (Greiner Bio-One, Frickenhausen, Germany), from which 50 nL of compounds were transferred into a black low volume test microtiter plate from the same supplier. […] The resulting mixture (5 μL final volume) was incubated at 22° C. during 60 min., and the reaction was stopped by the addition of 5 μL of an aqueous EDTA-solution (50 mM EDTA, in 100 mM HEPES pH 7.5 and 0.2% (w/v) bovine serum albumin) which also contained the TR-FRET detection reagents (0.2 μM streptavidin-XL665 [Cisbio Bioassays, Codolet, France] and 1 nM anti-phoshoSerine antibody [Merck Millipore, cat. #35-001] and 0.4 nM LANCE EU-W1024 labeled anti-mouse IgG antibody [Perkin-Elmer, product no. AD0077, alternatively a Terbium-cryptate-labeled anti-mouse IgG antibody from Cisbio Bioassays can be used]). The stopped reaction mixture was further incubated 1 h at 22° C. in order to allow the formation of complexes between peptides and detection reagents. Subsequently, the amount of product was evaluated by measurement of the resonance energy transfer from the Eu-chelate-antibody complex recognizing the Phosphoserine residue to the streptavidin-XL665 bound to the biotin moiety of the peptide.

[2] = 10 μM ATP, 1 μM peptide substrate, TR-FRET, read-out: Biological Assay 1: Bub1 kinase assay median IC50
[3] = 4 days incubation, crystal violet staining

Row | IC50 (HeLa cell line) [nM] | IC50 [1, 2] [nM] | IC50 (HeLa cell line; [3]) [nM] | IC50 [1] [nM] | Compound
1 | 7400 | 1400 | – | – | CCOc1cc(F)c(Cn2nc(-c3nc(NC(=O)NC4CCCCC4)c(N4CCOCC4)c(Nc4ccncn4)n3)c(C)c2C2CC2)c(F)c1 [Example 2-1-21, 1-cyclohexyl-3-{2-[5-cyclopropyl-1-(4-ethoxy-2,6-difluorobenzyl)-4-methyl-1H-pyrazol-3-yl]-5-(morpholin-4-yl)-6-(pyrimidin-4-ylamino)pyrimidin-4-yl}urea]
2 | – | – | 10000 | 13 | CCOc1cc(F)c(Cn2nc(-c3nc(N)c(NC(=O)COC)c(Nc4ccncn4)n3)c(C)c2C2CC2)c(F)c1 [Example 2-1-28, N-{4-amino-2-[5-cyclopropyl-1-(4-ethoxy-2,6-difluorobenzyl)-4-methyl-1H-pyrazol-3-yl]-6-(pyrimidin-4-ylamino)pyrimidin-5-yl}-2-methoxyacetamide]
3 | 4900 | 130 | – | – | CCNC(=O)Nc1cc(Nc2ccncn2)nc(-c2nn(Cc3c(F)cc(OCC)cc3F)c(C3CC3)c2C)n1 [Example 2-1-11, 1-{2-[5-cyclopropyl-1-(4-ethoxy-2,6-difluorobenzyl)-4-methyl-1H-pyrazol-3-yl]-6-(pyrimidin-4-ylamino)pyrimidin-4-yl}-3-ethylurea]
4 | 5600 | 2100 | – | – | CCNC(=O)Nc1nc(-c2nn(Cc3c(F)cc(OCC)cc3F)c(C3CC3)c2C)nc(Nc2ccncn2)c1N1CCOCC1 [Example 2-1-19, 1-{2-[5-cyclopropyl-1-(4-ethoxy-2,6-difluorobenzyl)-4-methyl-1H-pyrazol-3-yl]-5-(morpholin-4-yl)-6-(pyrimidin-4-ylamino)pyrimidin-4-yl}-3-ethylurea]
5 | 3800 | 310 | – | – | CCNC(=O)Nc1nc(-c2nn(Cc3c(F)cc(OCC)cc3F)c(C3CC3)c2C)nc(Nc2ccncc2)c1OC [Example 2-1-14, 1-{2-[5-cyclopropyl-1-(4-ethoxy-2,6-difluorobenzyl)-4-methyl-1H-pyrazol-3-yl]-5-methoxy-6-(pyridin-4-ylamino)pyrimidin-4-yl}-3-ethylurea]
6 | 5500 | 1400 | – | – | CCOc1cc(F)c(Cn2nc(-c3nc(NC(=O)NC4CCCCC4)c(OC)c(Nc4ccncn4)n3)c(C)c2C2CC2)c(F)c1 [Example 2-1-17, 1-cyclohexyl-3-{2-[5-cyclopropyl-1-(4-ethoxy-2,6-difluorobenzyl)-4-methyl-1H-pyrazol-3-yl]-5-methoxy-6-(pyrimidin-4-ylamino)pyrimidin-4-yl}urea]
7 | – | – | 3300 | 340 | CCOc1cc(F)c(Cn2nc(-c3nc(NC(=O)NC4CCCCC4)c(OC)c(Nc4ccncc4)n3)c(C)c2C2CC2)c(F)c1 [Example 2-1-16, 1-cyclohexyl-3-{2-[5-cyclopropyl-1-(4-ethoxy-2,6-difluorobenzyl)-4-methyl-1H-pyrazol-3-yl]-5-methoxy-6-(pyridin-4-ylamino)pyrimidin-4-yl}urea]
8 | 2200 | 150 | – | – | CCNC(=O)Nc1c(Nc2ccncc2)nc(-c2nn(Cc3c(F)cc(OCC)cc3F)c(C3CC3)c2C)nc1Nc1ccncc1 [Example 2-2-16, 1-{2-[5-cyclopropyl-1-(4-ethoxy-2,6-difluorobenzyl)-4-methyl-1H-pyrazol-3-yl]-4,6-bis(pyridin-4-ylamino)pyrimidin-5-yl}-3-ethylurea]
9 | – | – | 10000 | 120 | CCOc1cc(F)c(Cn2nc(-c3nc(Nc4ccncn4)c(OCCOC)c(Nc4ccncn4)n3)c(C)c2C2CC2)c(F)c1 [Example 2-2-13, 2-[5-cyclopropyl-1-(4-ethoxy-2,6-difluorobenzyl)-4-methyl-1H-pyrazol-3-yl]-5-(2-methoxyethoxy)-N,N′-di(pyrimidin-4-yl)pyrimidine-4,6-diamine]

More lines, now with the values behind:

Row | Compound | IC50 (HeLa cell line) [nM] | IC50 [1, 2] [nM] | IC50 (HeLa cell line; [3]) [nM] | IC50 [1] [nM]
10 | C=CC(=O)Nc1cc(Nc2ccncc2)nc(-c2nn(Cc3c(F)cc(OCC)cc3F)c(C3CC3)c2C)n1 [Example 2-1-22, N-{2-[5-cyclopropyl-1-(4-ethoxy-2,6-difluorobenzyl)-4-methyl-1H-pyrazol-3-yl]-6-(pyridin-4-ylamino)pyrimidin-4-yl}prop-2-enamide] | – | – | 9800 | 59
11 | CCOc1cc(F)c(Cn2nc(-c3nc4c(c(Nc5ccncc5)n3)OCC(=O)N4)c(C)c2C2CC2)c(F)c1 [Example 2-1-32, 2-[5-cyclopropyl-1-(4-ethoxy-2,6-difluorobenzyl)-4-methyl-1H-pyrazol-3-yl]-4-(pyridin-4-ylamino)-6H-pyrimido[5,4-b][1,4]oxazin-7(8H)-one] | > 10000 | 12 | – | –
12 | CCOc1cc(F)c(Cn2nc(-c3nc(N)c(NC(=O)COC)c(Nc4ccncc4)n3)c(C)c2C2CC2)c(F)c1 [Example 2-1-27, N-{4-amino-2-[5-cyclopropyl-1-(4-ethoxy-2,6-difluorobenzyl)-4-methyl-1H-pyrazol-3-yl]-6-(pyridin-4-ylamino)pyrimidin-5-yl}-2-methoxyacetamide] | > 10000 | 16 | – | –
13 | CCOc1cc(F)c(Cn2nc(-c3nc(N)c(NS(=O)(=O)C(F)(F)F)c(Nc4ccncc4)n3)c(C)c2C2CC2)c(F)c1 [Example 2-1-31, N-{4-amino-2-[5-cyclopropyl-1-(4-ethoxy-2,6-difluorobenzyl)-4-methyl-1H-pyrazol-3-yl]-6-(pyridin-4-ylamino)pyrimidin-5-yl}-1,1,1-trifluoromethanesulfonamide] | 10000 | 9.8 | – | –
14 | CCOc1cc(F)c(Cn2nc(-c3nc(Nc4ccncc4)c(NS(=O)(=O)C(F)(F)F)c(Nc4ccncc4)n3)c(C)c2C2CC2)c(F)c1 [Example 2-2-18, N-{2-[5-cyclopropyl-1-(4-ethoxy-2,6-difluorobenzyl)-4-methyl-1H-pyrazol-3-yl]-4,6-bis(pyridin-4-ylamino)pyrimidin-5-yl}-1,1,1-trifluoromethanesulfonamide] | 3000 | 13000 | – | –
15 | CCOc1cc(F)c(Cn2nc(-c3nc(N)c(OCCOC)c(Nc4ccncc4)n3)c(C)c2C2CC2)c(F)c1 [Example 2-1-25, 2-[5-cyclopropyl-1-(4-ethoxy-2,6-difluorobenzyl)-4-methyl-1H-pyrazol-3-yl]-5-(2-methoxyethoxy)-N-(pyridin-4-yl)pyrimidine-4,6-diamine] | 3000 | 10 | – | –
16 | CCOc1cc(F)c(Cn2nc(-c3nc(Nc4ccncc4)c(NC(=O)COC)c(Nc4ccncc4)n3)c(C)c2C2CC2)c(F)c1 [Example 2-2-14, N-{2-[5-cyclopropyl-1-(4-ethoxy-2,6-difluorobenzyl)-4-methyl-1H-pyrazol-3-yl]-4,6-bis(pyridin-4-ylamino)pyrimidin-5-yl}-2-methoxyacetamide] | 2800 | 350 | – | –
17 | CCOc1cc(F)c(Cn2nc(-c3nc(N)c(OC)c(Nc4ccncc4)n3)c(C)c2C2CC2)c(F)c1 [Example 2-1-4, 2-[5-cyclopropyl-1-(4-ethoxy-2,6-difluorobenzyl)-4-methyl-1H-pyrazol-3-yl]-5-methoxy-N-(pyridin-4-yl)pyrimidine-4,6-diamine] | 3500 | 4.8 | – | –
18 | CCOc1cc(F)c(Cn2nc(-c3nc(N)nc(Nc4ccnnc4)n3)c(C)c2C2CC2)c(F)c1 [Example 2-1-24, 6-[5-cyclopropyl-1-(4-ethoxy-2,6-difluorobenzyl)-4-methyl-1H-pyrazol-3-yl]-N-(pyridazin-4-yl)-1,3,5-triazine-2,4-diamine] | – | – | 6000 | 130
19 | CCOc1cc(F)c(Cn2nc(-c3nc(Nc4ccncc4)c(NS(=O)(=O)CC)c(Nc4ccncc4)n3)c(C)c2C2CC2)c(F)c1 [Example 2-2-17, N-{2-[5-cyclopropyl-1-(4-ethoxy-2,6-difluorobenzyl)-4-methyl-1H-pyrazol-3-yl]-4,6-bis(pyridin-4-ylamino)pyrimidin-5-yl}ethanesulfonamide] | > 10000 | 760 | – | –
